According to US7652022B2, “Diaryl urea derivatives useful for the treatment of protein kinase dependent diseases” (Novartis AG, priority 2002, dated 2010):

tested on: not given; assay: not given; details: not given

melting point [°C] | SMILES
171 to 172.5 | O=C(Nc1cccc(C(F)(F)F)c1)N1CCc2cc(Oc3ccncc3)ccc21 [Example 19, 5(4-pyridyloxy)-N-(3-trifluoromethyl-phenyl)amino-carbonyl-2,3-dihydroindole]
185.5 to 188 | O=C(Nc1cccc(C(F)(F)F)c1)N1CCCc2cc(Oc3ccncc3)ccc21 [Example 20]
187.4 to 189.7 | O=C(Nc1ccc(Oc2cc(Cl)ncn2)cc1)Nc1cccc(C(F)(F)F)c1 [Example 21, N-(4-(6-Chloropyrimidin-4-yl)-oxyphenyl)-N′-(3-trifluoromethylphenyl)-urea]

biological target: T1, c-Abl kinase (His-tagged kinase domain of c-Abl) (Homo sapiens, UniProt P00519); assay: c-Abl protein-tyrosine kinase in vitro enzyme filter binding assay; assay type: biochemical; details: % inhibition at 10 μM
T1 construct: The His-tagged kinase domain of c-Abl is cloned and expressed in the baculovirus/Sf9 system; His tag; made in house; host or cells: Sf9 insect cells (baculovirus)
T1 sequence (P00519 242-493 limits assumed): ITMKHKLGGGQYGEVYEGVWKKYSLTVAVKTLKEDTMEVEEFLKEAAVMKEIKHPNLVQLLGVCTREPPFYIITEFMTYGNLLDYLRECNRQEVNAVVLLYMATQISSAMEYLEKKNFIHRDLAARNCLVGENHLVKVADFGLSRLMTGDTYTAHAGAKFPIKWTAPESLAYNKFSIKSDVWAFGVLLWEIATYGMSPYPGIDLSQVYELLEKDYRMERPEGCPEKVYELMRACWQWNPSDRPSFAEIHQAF
Description: An in vitro enzyme assay is performed in 96-well plates as a filter binding assay as described by Geissler et al. in Cancer Res. 1992; 52:4492-4498, with the following modifications. The His-tagged kinase domain of c-Abl is cloned and expressed in the baculovirus/Sf9 system as described by Bhat et al. in J. Biol. Chem. 1997; 272:16170-16175. A protein of 37 kD (c-Abl kinase) is purified by a two-step procedure over a Cobalt metal chelate column followed by an anion exchange column with a yield of 1-2 mg/L of Sf9 cells (Bhat et al., reference cited). The purity of the c-Abl kinase is >90% as judged by SDS-PAGE after Coomassie blue staining. The assay contains (total volume of 30 μL): c-Abl kinase (50 ng), 20 mM Tris·HCl, pH 7.5, 10 mM MgCl2, 10 μM Na3VO4, 1 mM DTT and 0.06 μCi/assay [γ^33 P]-ATP (5 μM ATP) using 30 μg/mL poly-Ala,Glu,Lys,Tyr-6:2:5:1 (Poly-AEKY, Sigma P1152) in the presence of 1% DMSO. Reactions are terminated by adding 10 μL of 250 mM EDTA and 30 μL of the reaction mixture is transferred onto Immobilon-PVDF membrane (Millipore, Bedford, Mass., USA) previously soaked for 5 min with methanol, rinsed with water, then soaked for 5 min with 0.5% H3PO4 and mounted on vacuum manifold with disconnected vacuum source. After spotting all samples, vacuum is connected and each well rinsed with 200 μL 0.5% H3PO4. Membranes are removed and washed on a shaker with 0.5% H3PO4 (4 times) and once with ethanol. Membranes are counted after drying at ambient temperature, mounting in Packard TopCount 96-well frame, and addition of 10 μL/well of Microscint™ (Packard).
Enzymatic (c-Abl, KDR, Flt3) data are given on Table 17 (% inhibition at 10 μM). (Measurements are made as described above in the general description).

SMILES | c-Abl (% at 10 μM) [%]
CN(C(=O)Nc1cccc(C(F)(F)F)c1)c1ccc(Oc2ccncc2)cc1 [Example 6] | 75
Cc1ccc(NC(=O)N(C)c2ccc(Oc3ccncc3)cc2)cc1 [Example 8] | 48
O=C(Nc1ccc(Oc2ccncc2)cc1)Nc1ccc(Br)c(C(F)(F)F)c1 [Example 9] | 100
O=C(Nc1ccc(Oc2ccncc2)cc1)Nc1ccc(OCC(F)(F)F)c(C(F)(F)F)c1 [Example 10] | 98
COc1cc(NC(=O)Nc2ccc(Oc3ccncc3)cc2)cc(C(F)(F)F)c1 [Example 11] | 95
O=C(Nc1cccc(C(F)(F)F)c1)N1CCc2cc(Oc3ccncc3)ccc21 [Example 19, 5(4-pyridyloxy)-N-(3-trifluoromethyl-phenyl)amino-carbonyl-2,3-dihydroindole] | 92
O=C(Nc1cccc(C(F)(F)F)c1)N1CCCc2cc(Oc3ccncc3)ccc21 [Example 20] | 84
O=C(Nc1ccc(Oc2cc(Cl)ncn2)cc1)Nc1cccc(C(F)(F)F)c1 [Example 21, N-(4-(6-Chloropyrimidin-4-yl)-oxyphenyl)-N′-(3-trifluoromethylphenyl)-urea] | 70
Cc1cc(Oc2ccc(NC(=O)Nc3cccc(C(F)(F)F)c3)cc2)ccn1 [Example 30] | 100
O=C(Nc1ccc(Oc2cc(Nc3ccc(O)cc3)ncn2)cc1)Nc1ccc(OCC(F)(F)F)c(C(F)(F)F)c1 [Example 32] | 98

The remaining lines, values ahead:

c-Abl (% at 10 μM) [%] | SMILES
59 | Cc1ccc(NC(=O)Nc2ccc(Oc3ccncc3)cc2)cc1 [Example 4]
46 | CCc1ccc(NC(=O)N(C)c2ccc(Oc3ccncc3)cc2)cc1 [Example 5]
47 | CCCc1ccc(NC(=O)N(C)c2ccc(Oc3ccncc3)cc2)cc1 [Example 7]
33 | CCCc1ccc(NC(=O)Nc2ccc(Cc3ccncc3)cc2)cc1 [Example 12]
36 | CCc1ccc(NC(=O)Nc2ccc(Cc3ccncc3)cc2)cc1 [Example 13]
26 | Cc1ccc(NC(=O)Nc2ccc(Cc3ccncc3)cc2)cc1 [Example 14]
71 | O=C(Nc1ccc(Cc2ccncc2)cc1)Nc1cccc(C(F)(F)F)c1 [Example 15]
66 | CCc1ccc(NC(=O)Cc2ccc(Oc3ccncc3)cc2)cc1 [Example 16, N-(4-pyridin-4-yl-oxy-phenyl)acetyl-(4-ethyl-phenyl)-amide]
18 | Cc1ccc(NC(=O)Cc2ccc(Oc3ccncc3)cc2)cc1 [Example 17]
61 | CCCc1ccc(NC(=O)Cc2ccc(Oc3ccncc3)cc2)cc1 [Example 18]
